pIC50: −log10 of the molar value. Structures can show the parent of a compound that is named as a salt.

Data on 11 compounds can be found in patent publication US4555572A, “Pyrazolo[3,4,5-kl]acridine compositions and methods for their production and use” (Warner-Lambert Company, priority 1984, dated 1985).

For one experiment, the system named is Alcaligenes viscolactis. The experiment in a line: in vitro antibacterial/antifungal (ABF) agar-disk diffusion assay. The class given is cell-based. The conditions noted are these: read-out: ABF zone diameter A. viscol.; for zone of inhibition at 100 µg/mL: dose .1 mg/ml. The protocol:
(§1) (b) Another test protocol is the in vitro antibacterial/antifungal (ABF) test. Compounds are tested for antimicrobial activity in an agar-disk diffusion assay, a standard microbiological technique for testing antibiotics. After incubation of each culture with a test compound, a zone of inhibition is determined. The zone diameter (mm) of active compounds ranges from a minimum of 14 mm to as high as 60 mm, with a greater diameter reflecting higher activity. For convenience, values are reported for (Alcaligenes viscolactis, Sarcina lutea, Branhamella catarrhalis, Bacillus subtilis, and Streptococcus faecalis.

In the next experiment the test system is Bacillus subtilis. The experiment is described as above. Type of experiment: cell-based. The conditions noted are these: for zone of inhibition at 100 µg/mL / zone of inhibition at 500 µg/mL: Bacillus subtilis, read-out: ABF zone diameter B. subtil.; for zone of inhibition at 100 µg/mL: dose .1 mg/ml; for zone of inhibition at 500 µg/mL: dose .5 mg/ml; for ABF zone diameter B. subtil.: dose not given. On the procedure:
as §1

For the next experiment, the system named is Branhamella catarrhalis. Described as above. Type of experiment: cell-based. The conditions noted are these: Moraxella catarrhalis, read-out: ABF zone diameter B. catarrh.; for zone of inhibition at 100 µg/mL: dose .1 mg/ml; for zone of inhibition at 500 µg/mL: dose .5 mg/ml. The protocol:
as §1

A further experiment deals with Sarcina lutea. The description is as above. Type of experiment: cell-based. As to conditions: Micrococcus luteus, read-out: ABF zone diameter S. lutea; for zone of inhibition at 500 µg/mL: dose .5 mg/ml; for zone of inhibition at 1000 µg/mL: dose 1 mg/ml; for zone of inhibition at 100 µg/mL: dose .1 mg/ml. On the procedure: as §1
The test system of a further experiment is Streptococcus faecalis. The description is as above. Type of experiment: cell-based. The conditions noted are these: Enterococcus faecalis, read-out: ABF zone diameter S. faecalis; for zone of inhibition at 500 µg/mL: dose .5 mg/ml; for zone of inhibition at 1000 µg/mL: dose 1 mg/ml. The protocol:
as §1

Experiment [1] concerns lymphocytic leukemia P388. The experiment in a line: in vivo lymphocytic leukemia P388 test. Also noted: species or system CD2 F1 mice. As to conditions: Mus musculus, P388, ip, 120 h, intraperitoneally once daily for five days, read-out: P388 in vivo T/C × 100. Summed up:
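CD2 F1 mice (6–7 per group) inoculated i.p. with P388 ascitic cells; compound dosed i.p. once daily for 5 consecutive days after inoculation. Survival followed 30 days; efficacy as treated/control survival time ×100 (≥125 criterion); "toxic" if all animals died within 4 days of first dose.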

For another experiment, the system named is HCT-8 cells. The experiment in a line: in vitro proliferating human colon adenocarcinoma (HCA) cell screen, HCT-8. Type of experiment: cell-based. As to conditions: HCT-8 cells, 60 to 65 hours, molar concentration for 50% inhibition of growth, read-out: HCA in vitro ID50 avg. Summed up:
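HCT-8 colon adenocarcinoma cells seeded in RPMI 1640 + 10% FCS, grown 48 h, then exposed to compounds for 60-65 h at 37 °C, 5% CO2. Nuclei counted by Coulter counter after lysis; ID50 is the molar concentration giving 50% growth inhibition.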

For the compound `CN1c2ccccc2-c2nn(CCNCCO)c3ccc([N+](=O)[O-])c1c23` [Example 4, 2-[[2-[6-Methyl-5-nitropyrazolo[3,4,5-kl-acridin-2-(6H)-yl]ethyl]amino]ethanol, methanesulfonate], the values for the zone of inhibition at 100 µg/mL in the experiment on Alcaligenes viscolactis, in the experiment with Bacillus subtilis and with Branhamella catarrhalis were 19 mm, 20 mm and 16 mm, respectively. Also, the zone of inhibition at 500 µg/mL in the experiment on Sarcina lutea stood at 19 mm; in the experiment with Streptococcus faecalis, 18 mm. Further, in experiment [1], the response vs control in vivo at 25 mg/kg was 120%. Moreover, the response vs control in vivo at 50 mg/kg in experiment [1] was 180%.

Turning to `COc1ccc2c(c1)-c1nn(CCN(C)C)c3ccc([N+](=O)[O-])c(c13)N2` [Example 5a, 9-methoxy-N,N-dimethyl-5-nitropyrazolo[3,4,5-kl]acridine-2(6H)=-ethanamine, methanesulfonate], the pIC50 with HCT-8 cells is 7.00. Further, the zone of inhibition at 100 µg/mL in the experiment with Alcaligenes viscolactis was 19 mm. Further, in the experiment on Bacillus subtilis, the zone of inhibition at 100 µg/mL stood at 14 mm. In the experiment on Branhamella catarrhalis, the zone of inhibition at 500 µg/mL was determined as 21 mm. Also, the zone of inhibition at 1000 µg/mL with Sarcina lutea is 16 mm. For the same compound, in the experiment on Streptococcus faecalis, the zone of inhibition at 500 µg/mL came out at 15 mm. For the same compound, in experiment [1], the response vs control in vivo at 12.5 mg/kg was determined as 181%, the response vs control in vivo at 25 mg/kg came to 228% and the response vs control in vivo at 50 mg/kg is 275%.

Consider `CCN(CC)CCn1nc2c3c(c([N+](=O)[O-])ccc31)N(C)c1ccccc1-2` [Example 2, N,N-Diethyl-6-methyl-5-nitropyrazolo[3,4,5-kl]acridine-2(6H)-ethanamine, methanesulfonate], for which the pIC50 in the experiment with HCT-8 cells was 6.00. Further, the zone of inhibition at 100 µg/mL in the experiment with Alcaligenes viscolactis was found to be 20 mm; in the experiment with Bacillus subtilis, 18 mm; in the experiment with Branhamella catarrhalis, 17 mm. Also, the zone of inhibition at 500 µg/mL with Streptococcus faecalis is 16 mm. Besides, the response vs control in vivo at 12.5 mg/kg in experiment [1] was 126%. In addition, in experiment [1], the response vs control in vivo at 25 mg/kg stood at 184%.

Regarding `CCN(CC)CCn1nc2c3c(c([N+](=O)[O-])ccc31)Nc1ccccc1-2` [Example 1, N,N-Diethyl-5-nitropyrazolo[3,4,5-kl]acridine-2(6H)-ethanamine, methanesulfonate (1:1)], the pIC50 in the experiment with HCT-8 cells is 6.52. For the same compound, the zone of inhibition at 100 µg/mL with Alcaligenes viscolactis was found to be 22 mm; in the experiment with Bacillus subtilis, 15 mm; in the experiment with Branhamella catarrhalis it was 17 mm; in the experiment on Sarcina lutea it was 14 mm. Further, in the experiment on Streptococcus faecalis, the zone of inhibition at 500 µg/mL was determined as 17 mm. The response vs control in vivo at 2.5 mg/kg in experiment [1] (2.50 mg/kg) is 122%. Further, the response vs control in vivo at 5 mg/kg in experiment [1] (5.00 mg/kg) turned out to be 163%. The response vs control in vivo at 6.25 mg/kg in experiment [1] was found to be 165%.

Consider `CCN(CC)CCn1nc2c3c(c([N+](=O)[O-])ccc31)N(C)c1ccc(OC)cc1-2` [Example 6, N,N-Diethyl-9-methoxy-6-methyl-5-nitropyrazolo[3,4,5-kl]acridine-2(6H)-ethanamine, monomethanesulfonate], for which the pIC50 with HCT-8 cells was 6.51. In addition, in the experiment with Alcaligenes viscolactis, the zone of inhibition at 100 µg/mL is 15 mm. In addition, the zone of inhibition at 500 µg/mL with Bacillus subtilis is 19 mm. Also, the zone of inhibition at 500 µg/mL with Branhamella catarrhalis is 16 mm. The zone of inhibition at 500 µg/mL with Sarcina lutea was determined as 15 mm. The zone of inhibition at 1000 µg/mL in the experiment with Streptococcus faecalis turned out to be 15 mm. In experiment [1], the response vs control in vivo at 6.25 mg/kg turned out to be 142%, the response vs control in vivo at 12.5 mg/kg amounted to 151%, the response vs control in vivo at 25 mg/kg came out at 173% and the response vs control in vivo at 50 mg/kg was determined as 230%.

With `CCN(CC)CCn1nc2ccc([N+](=O)[O-])c3c2c1-c1cc(OC)ccc1N3.CS(=O)(=O)O` [Example 9, N,N-Diethyl-9-methoxy-5-nitropyrazolo[3,4,5-kl]acridine-1(6H)-ethanamine, monomethanesulfonate], the “ABF zone diameter B. subtil.” value with Bacillus subtilis was found to be 15 mm. Also, the zone of inhibition at 100 µg/mL with Branhamella catarrhalis turned out to be 16 mm. Besides, the zone of inhibition at 100 µg/mL in the experiment on Sarcina lutea was 14 mm. Besides, in the experiment with Streptococcus faecalis, the zone of inhibition at 500 µg/mL was 18 mm. Moreover, in experiment [1], the response vs control in vivo at 12.5 mg/kg is 120%, the response vs control in vivo at 25 mg/kg came out at 135% and the response vs control in vivo at 50 mg/kg came out at 167%.

For `O=[N+]([O-])c1ccc2c3c(nn2CCNCCO)-c2ccccc2Nc13` [Example 3, 2-[[2-(5-Nitropyrazolo[3,4,5-kl[acridin-2(6H)-yl)ethyl]amino]ethanol, monohydrochloride], the zone of inhibition at 100 µg/mL with Alcaligenes viscolactis is 21 mm. Also, the zone of inhibition at 100 µg/mL in the experiment on Bacillus subtilis worked out at 18 mm. In addition, the zone of inhibition at 500 µg/mL with Branhamella catarrhalis is 25 mm. Further, in the experiment on Sarcina lutea, the zone of inhibition at 500 µg/mL is 14 mm. Further, the zone of inhibition at 500 µg/mL in the experiment with Streptococcus faecalis is 15 mm. Further, in experiment [1], the response vs control in vivo at 3.12 mg/kg was found to be 122%, the response vs control in vivo at 6.25 mg/kg is 132%, the response vs control in vivo at 12.5 mg/kg was found to be 158% and the response vs control in vivo at 25 mg/kg is 185%.

As to `CCN(CC)CCn1nc2ccc([N+](=O)[O-])c3c2c1-c1ccccc1N3` [Example 8, yl-5-nitropyrazolo[3,4,5-kl]acridine-1(6H)-ethanamine, monomethanesulfonate], in the experiment with Alcaligenes viscolactis, the zone of inhibition at 100 µg/mL worked out at 23 mm. Moreover, in the experiment on Bacillus subtilis, the “ABF zone diameter B. subtil.” value worked out at 0 mm. For the same compound, the zone of inhibition at 10 µg/mL in the experiment on Branhamella catarrhalis (dose .01 mg/ml) was 15 mm. The zone of inhibition at 500 µg/mL in the experiment with Sarcina lutea was found to be 18 mm. Also, the zone of inhibition at 500 µg/mL in the experiment with Streptococcus faecalis was 18 mm. In addition, in experiment [1], the response vs control in vivo at 12.5 mg/kg was 140% and the response vs control in vivo at 50 mg/kg is 211%.

As to `COc1ccc2c(c1)-c1nn(CCNCCO)c3ccc([N+](=O)[O-])c(c13)N2` [Example 7, 2-[[2-(9-Methoxy-5-nitropyrazolo[3,4,5-kl]-acridin-2(6H)yl)ethyl]aminoethanol, monohydrochloride], in the experiment with Bacillus subtilis, the zone of inhibition at 500 µg/mL came to 18 mm. Further, the zone of inhibition at 100 µg/mL with Branhamella catarrhalis worked out at 14 mm. The zone of inhibition at 1000 µg/mL in the experiment on Sarcina lutea is 14 mm. In the experiment on Streptococcus faecalis, the zone of inhibition at 1000 µg/mL is 14 mm. Also, in experiment [1], the response vs control in vivo at 6.25 mg/kg stood at 138%, the response vs control in vivo at 12.5 mg/kg was 138%, the response vs control in vivo at 25 mg/kg amounted to 149% and the response vs control in vivo at 50 mg/kg came out at 163%.

As to `CCN(CC)CCn1nc2c3c(c([N+](=O)[O-])ccc31)Nc1ccc(OC)cc1-2` [Example 5, N,N-Diethyl-9-methoxy-5-nitropyrazolo-[3,4,5-kl]acridine-2(6H)-ethanamine, methanesulfonate (1:1)], the pIC50 in the experiment with HCT-8 cells was 6.92. Besides, in the experiment on Alcaligenes viscolactis, the zone of inhibition at 100 µg/mL amounted to 18 mm. Besides, in the experiment on Bacillus subtilis, the zone of inhibition at 100 µg/mL is 15 mm. Moreover, the zone of inhibition at 100 µg/mL in the experiment with Branhamella catarrhalis amounted to 16 mm. The zone of inhibition at 500 µg/mL with Sarcina lutea is 14 mm. Besides, in the experiment on Streptococcus faecalis, the zone of inhibition at 1000 µg/mL is 14 mm. In addition, in experiment [1], the response vs control in vivo at 3.12 mg/kg is 143%, the response vs control in vivo at 6.25 mg/kg came out at 158%, the response vs control in vivo at 12.5 mg/kg was 197% and the response vs control in vivo at 25 mg/kg came out at 242%.

Take `CCN(CC)CCn1nc2c3c(c([N+](=O)[O-])ccc31)Nc1ccc(O)cc1-2` [Example 10, 2-[2-(Diethylamino)ethyl]-2,6-dihydro-5-nitropyrazolo[3,4,5 kl]acridin-9-ol, monomethanesulfonate]: the pIC50 in the experiment with HCT-8 cells was 7.89. For the same compound, in the experiment on Alcaligenes viscolactis (dose .01 mg/ml), the zone of inhibition at 10 µg/mL is 15 mm. Moreover, the results for the zone of inhibition at 100 µg/mL in the experiment on Bacillus subtilis and in the experiment on Branhamella catarrhalis were 17 mm and 18 mm, respectively. The zone of inhibition at 1000 µg/mL in the experiment on Sarcina lutea worked out at 14 mm. For the same compound, the zone of inhibition at 500 µg/mL with Streptococcus faecalis is 16 mm. Besides, the response vs control in vivo at 0.38 mg/kg in experiment [1] (0.38 mg/kg) is 138%. The response vs control in vivo at 0.75 mg/kg in experiment [1] (0.75 mg/kg) was 149%. The response vs control in vivo at 1.5 mg/kg in experiment [1] (1.50 mg/kg) was 158%. The response vs control in vivo at 3 mg/kg in experiment [1] (3.00 mg/kg) was found to be 180%.
